This note sets out measurements from ChEMBL document CHEMBL1125246, “Configuration and preferential solid-state conformations of perindoprilat (S-9780). Comparison with the crystal structures of other ACE inhibitors and conclusions related to structure-activity relationships” (J Med Chem, 1991).

For this assay, the target named is T1, Angiotensin-converting enzyme (Oryctolagus cuniculus, UniProt P12822).
T1 sequence (P12822 whole entry): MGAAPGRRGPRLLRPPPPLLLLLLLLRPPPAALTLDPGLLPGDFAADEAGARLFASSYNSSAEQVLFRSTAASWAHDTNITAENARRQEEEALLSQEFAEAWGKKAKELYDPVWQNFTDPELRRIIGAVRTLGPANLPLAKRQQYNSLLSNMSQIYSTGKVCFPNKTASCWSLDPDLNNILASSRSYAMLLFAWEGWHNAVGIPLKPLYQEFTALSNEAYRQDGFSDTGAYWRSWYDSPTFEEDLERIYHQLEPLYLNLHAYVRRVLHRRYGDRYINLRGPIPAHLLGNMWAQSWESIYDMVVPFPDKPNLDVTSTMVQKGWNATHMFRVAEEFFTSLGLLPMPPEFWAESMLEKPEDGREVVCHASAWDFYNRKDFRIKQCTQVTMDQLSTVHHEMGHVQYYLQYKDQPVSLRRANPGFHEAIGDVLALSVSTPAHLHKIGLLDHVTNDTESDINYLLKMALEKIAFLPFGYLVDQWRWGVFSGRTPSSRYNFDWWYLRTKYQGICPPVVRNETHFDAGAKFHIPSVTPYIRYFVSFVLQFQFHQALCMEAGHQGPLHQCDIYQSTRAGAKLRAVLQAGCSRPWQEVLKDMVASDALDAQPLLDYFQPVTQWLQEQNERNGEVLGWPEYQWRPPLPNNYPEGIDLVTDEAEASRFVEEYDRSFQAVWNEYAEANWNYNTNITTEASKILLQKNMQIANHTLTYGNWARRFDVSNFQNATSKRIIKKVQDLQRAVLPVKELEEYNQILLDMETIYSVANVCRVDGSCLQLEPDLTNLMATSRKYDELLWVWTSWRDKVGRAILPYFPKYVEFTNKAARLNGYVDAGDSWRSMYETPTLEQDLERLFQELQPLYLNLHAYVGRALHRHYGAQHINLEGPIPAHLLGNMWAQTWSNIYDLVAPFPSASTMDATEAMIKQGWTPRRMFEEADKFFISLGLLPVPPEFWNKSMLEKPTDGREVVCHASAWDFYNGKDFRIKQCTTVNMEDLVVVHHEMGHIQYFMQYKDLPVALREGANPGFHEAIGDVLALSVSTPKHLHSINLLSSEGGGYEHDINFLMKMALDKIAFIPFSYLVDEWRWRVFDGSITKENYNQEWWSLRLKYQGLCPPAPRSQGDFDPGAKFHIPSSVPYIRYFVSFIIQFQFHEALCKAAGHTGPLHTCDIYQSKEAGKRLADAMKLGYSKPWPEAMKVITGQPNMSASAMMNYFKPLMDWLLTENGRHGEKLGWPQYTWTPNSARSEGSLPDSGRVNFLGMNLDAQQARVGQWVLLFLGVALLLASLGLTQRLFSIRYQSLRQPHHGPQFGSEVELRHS
The experiment in a line: In vitro activity against angiotensin I converting enzyme especially against Hip-His-Leu residues.
With `CCCC(N[C@H](C)C(=O)N1C(C(=O)O)CC2CCCCC21)C(=O)O` (stereo not given in full), 1100 nM corresponded to half-maximal inhibition (IC50).
To `CCC[C@H](NCC(=O)N1C2CCCCC2C[C@H]1C(=O)O)C(=O)O` (stereo not given in full) belongs 1.9 nM; to `O=C(O)C1CCCN1C(=O)CCS` (stereo not given), 200 nM.
To `O=C(O)[C@H](CCc1ccccc1)NCC(=O)N1CCC[C@H]1C(=O)O` belongs 230 nM; to `CCCC(N[C@@H](C)C(=O)N1C(C(=O)O)CC2CCCCC21)C(=O)O` (stereo not given in full), 1.5 nM.
